The results in this text go back to US10227342B2 (ARIAD PHARMACEUTICALS, INC., priority 2014, dated 2019).

The structures appear in SMILES notation. Some results are limits rather than exact numbers.

Common to all, as to assay type: cell-based
Test [1] deals with Her2 exon 20 YVMA insertion (A775_G776ins YVMA) (Homo sapiens (Human), UniProt P04626, INS775YVMA). The test can be described thus: Ba/F3-Her2 Exon20 YVMA cell anti-proliferative assay (CellTiter 96 MTS, 72 h). Particulars: Ba/F3-Her2 Exon20 YVMA cells. The text has this: Ba/F3 cells expressing Her2 Exon20 YVMA insertions (named Ba/F3-Her2 Exon20 YVMA) can proliferate in the absence of IL-3.
Her2 exon 20 YVMA insertion (A775_G776ins YVMA), sequence (P04626 other isoform, or with tags, fused parts or gaps ins YVMA behind 775): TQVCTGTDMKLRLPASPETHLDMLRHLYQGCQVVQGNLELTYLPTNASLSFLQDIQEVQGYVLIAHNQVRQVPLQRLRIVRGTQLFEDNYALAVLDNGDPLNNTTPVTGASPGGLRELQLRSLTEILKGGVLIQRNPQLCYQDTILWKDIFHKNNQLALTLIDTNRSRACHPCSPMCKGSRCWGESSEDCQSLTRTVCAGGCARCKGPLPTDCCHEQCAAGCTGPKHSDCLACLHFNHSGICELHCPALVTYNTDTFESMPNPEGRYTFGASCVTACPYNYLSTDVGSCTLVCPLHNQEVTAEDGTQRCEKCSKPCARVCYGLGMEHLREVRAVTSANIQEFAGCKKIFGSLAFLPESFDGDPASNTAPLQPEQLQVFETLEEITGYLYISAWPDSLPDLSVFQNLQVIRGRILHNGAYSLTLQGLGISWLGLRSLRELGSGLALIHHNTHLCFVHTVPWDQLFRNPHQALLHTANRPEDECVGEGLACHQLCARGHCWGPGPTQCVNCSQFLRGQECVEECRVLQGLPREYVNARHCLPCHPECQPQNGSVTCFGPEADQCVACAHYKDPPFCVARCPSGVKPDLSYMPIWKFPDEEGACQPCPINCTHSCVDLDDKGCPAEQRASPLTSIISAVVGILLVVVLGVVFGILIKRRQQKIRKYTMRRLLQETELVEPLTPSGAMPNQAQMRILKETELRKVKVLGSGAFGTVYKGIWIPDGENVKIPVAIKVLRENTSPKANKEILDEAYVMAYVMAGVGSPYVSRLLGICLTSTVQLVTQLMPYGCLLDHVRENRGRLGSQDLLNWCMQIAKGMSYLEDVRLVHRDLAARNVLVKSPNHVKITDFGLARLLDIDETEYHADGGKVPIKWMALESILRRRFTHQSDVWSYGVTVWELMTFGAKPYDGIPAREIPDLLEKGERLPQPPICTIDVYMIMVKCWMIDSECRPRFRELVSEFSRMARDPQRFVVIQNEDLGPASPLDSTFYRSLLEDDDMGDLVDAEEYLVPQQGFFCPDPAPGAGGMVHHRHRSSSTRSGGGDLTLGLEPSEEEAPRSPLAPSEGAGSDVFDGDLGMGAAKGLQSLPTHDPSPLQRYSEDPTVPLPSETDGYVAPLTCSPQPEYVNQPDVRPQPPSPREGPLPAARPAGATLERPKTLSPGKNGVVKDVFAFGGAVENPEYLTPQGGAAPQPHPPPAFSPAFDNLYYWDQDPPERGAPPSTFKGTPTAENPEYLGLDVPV

For test [2], the target named is human EGFR exon 20 insertion NPG (H773_V774insNPG) (Homo sapiens, UniProt P00533, INS773NPG, cells depend on it). Nature of the test: Ba/F3-EGFR-Exon20-NPG cell anti-proliferative assay (CellTiter 96 MTS, 72 h). Particulars: read-out: EGFR exon 20 NPG insertion IC50.
human EGFR exon 20 insertion NPG (H773_V774insNPG), sequence (P00533 with tags, fused parts or gaps INS773NPG limits assumed): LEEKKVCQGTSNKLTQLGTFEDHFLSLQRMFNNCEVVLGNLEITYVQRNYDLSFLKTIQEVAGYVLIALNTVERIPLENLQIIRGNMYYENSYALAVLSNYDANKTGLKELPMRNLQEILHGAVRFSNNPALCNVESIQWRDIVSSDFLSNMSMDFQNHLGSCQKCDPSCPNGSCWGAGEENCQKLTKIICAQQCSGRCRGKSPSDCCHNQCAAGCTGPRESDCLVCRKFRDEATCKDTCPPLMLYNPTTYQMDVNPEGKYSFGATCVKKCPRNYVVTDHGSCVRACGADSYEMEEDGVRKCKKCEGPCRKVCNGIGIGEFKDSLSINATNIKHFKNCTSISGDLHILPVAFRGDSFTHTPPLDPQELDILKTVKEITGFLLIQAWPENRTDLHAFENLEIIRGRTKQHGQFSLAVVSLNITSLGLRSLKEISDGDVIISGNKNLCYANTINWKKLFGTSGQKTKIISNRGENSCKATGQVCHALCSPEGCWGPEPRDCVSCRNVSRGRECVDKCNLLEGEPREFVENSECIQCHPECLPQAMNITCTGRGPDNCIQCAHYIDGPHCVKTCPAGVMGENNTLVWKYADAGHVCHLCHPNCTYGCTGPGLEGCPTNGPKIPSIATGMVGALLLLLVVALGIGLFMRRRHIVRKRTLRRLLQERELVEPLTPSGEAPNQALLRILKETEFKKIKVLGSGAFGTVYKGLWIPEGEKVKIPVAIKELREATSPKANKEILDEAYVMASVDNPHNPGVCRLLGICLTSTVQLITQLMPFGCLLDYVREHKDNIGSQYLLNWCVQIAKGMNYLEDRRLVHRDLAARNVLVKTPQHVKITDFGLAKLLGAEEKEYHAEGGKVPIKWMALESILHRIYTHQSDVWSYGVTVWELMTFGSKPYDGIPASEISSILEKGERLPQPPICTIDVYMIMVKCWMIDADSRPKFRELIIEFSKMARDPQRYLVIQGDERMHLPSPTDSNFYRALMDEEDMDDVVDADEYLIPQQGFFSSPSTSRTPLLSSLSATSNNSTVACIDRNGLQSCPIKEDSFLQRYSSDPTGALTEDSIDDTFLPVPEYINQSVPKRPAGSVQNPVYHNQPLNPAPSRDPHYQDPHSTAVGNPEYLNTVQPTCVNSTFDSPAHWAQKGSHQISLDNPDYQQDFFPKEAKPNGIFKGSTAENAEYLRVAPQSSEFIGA
For test [3], the target named is human EGFR exon 20 insertion ASV (V769_D770insASV) (Homo sapiens (Human), UniProt P00533, INS769ASV). Nature of the test: Ba/F3-EGFR-Exon20-ASV cell anti-proliferative assay (CellTiter 96 MTS, 72 h).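 Further: Ba/F3 cells bearing the EGFR exon 20 ASV insertion, a line able to proliferate without IL-3.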 Particulars: Ba/F3-EGFR-Exon20-ASV cells.
human EGFR exon 20 insertion ASV (V769_D770insASV), sequence (P00533 other isoform, or with tags, fused parts or gaps ins ASV behind 769): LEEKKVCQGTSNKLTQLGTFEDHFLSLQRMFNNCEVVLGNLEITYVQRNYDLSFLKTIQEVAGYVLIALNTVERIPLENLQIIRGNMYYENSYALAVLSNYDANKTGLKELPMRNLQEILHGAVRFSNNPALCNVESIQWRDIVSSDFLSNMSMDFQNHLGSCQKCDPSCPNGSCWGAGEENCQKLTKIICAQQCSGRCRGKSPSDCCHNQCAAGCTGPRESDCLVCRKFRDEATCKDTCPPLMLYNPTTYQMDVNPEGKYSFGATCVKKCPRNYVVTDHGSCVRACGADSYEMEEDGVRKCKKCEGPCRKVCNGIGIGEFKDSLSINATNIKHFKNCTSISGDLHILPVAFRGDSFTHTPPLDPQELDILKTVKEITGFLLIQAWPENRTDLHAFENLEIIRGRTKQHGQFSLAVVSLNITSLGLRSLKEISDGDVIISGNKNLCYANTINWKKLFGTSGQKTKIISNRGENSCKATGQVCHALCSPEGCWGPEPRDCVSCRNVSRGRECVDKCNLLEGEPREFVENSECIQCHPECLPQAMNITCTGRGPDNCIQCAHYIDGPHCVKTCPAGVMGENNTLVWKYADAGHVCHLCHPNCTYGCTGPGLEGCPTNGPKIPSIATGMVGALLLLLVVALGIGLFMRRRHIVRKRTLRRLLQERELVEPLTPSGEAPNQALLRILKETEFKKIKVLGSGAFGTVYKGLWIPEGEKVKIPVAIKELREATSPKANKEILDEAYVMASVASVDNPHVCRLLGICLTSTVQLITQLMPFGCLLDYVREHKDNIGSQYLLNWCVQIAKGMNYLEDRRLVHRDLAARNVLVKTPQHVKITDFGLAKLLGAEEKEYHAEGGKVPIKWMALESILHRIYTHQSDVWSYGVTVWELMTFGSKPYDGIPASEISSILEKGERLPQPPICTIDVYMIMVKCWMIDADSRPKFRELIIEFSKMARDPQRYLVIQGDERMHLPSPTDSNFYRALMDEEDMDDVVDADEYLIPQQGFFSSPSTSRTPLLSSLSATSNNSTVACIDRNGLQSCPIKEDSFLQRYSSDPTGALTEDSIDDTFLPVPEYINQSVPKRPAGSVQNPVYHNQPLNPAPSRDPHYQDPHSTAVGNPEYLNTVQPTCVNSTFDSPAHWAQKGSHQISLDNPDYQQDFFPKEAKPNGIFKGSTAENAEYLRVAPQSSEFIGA
Test [4] concerns the target human EGFR E746-A750 deletion and T790M Mutation (DT) (Homo sapiens (Human), UniProt P00533, DEL746-750/T790M). The test can be described thus: Ba/F3-EGFR-Del/T790M cell anti-proliferative assay (CellTiter 96 MTS, 72 h). Particulars: Ba/F3-EGFR-Del/T790M cells; for IC50: read-out: EGFR exon 19 deletion and T790M mutation IC50.

human EGFR E746-A750 deletion and T790M Mutation (DT), sequence (P00533 other isoform, or with tags, fused parts or gaps T790M/del E746-A750): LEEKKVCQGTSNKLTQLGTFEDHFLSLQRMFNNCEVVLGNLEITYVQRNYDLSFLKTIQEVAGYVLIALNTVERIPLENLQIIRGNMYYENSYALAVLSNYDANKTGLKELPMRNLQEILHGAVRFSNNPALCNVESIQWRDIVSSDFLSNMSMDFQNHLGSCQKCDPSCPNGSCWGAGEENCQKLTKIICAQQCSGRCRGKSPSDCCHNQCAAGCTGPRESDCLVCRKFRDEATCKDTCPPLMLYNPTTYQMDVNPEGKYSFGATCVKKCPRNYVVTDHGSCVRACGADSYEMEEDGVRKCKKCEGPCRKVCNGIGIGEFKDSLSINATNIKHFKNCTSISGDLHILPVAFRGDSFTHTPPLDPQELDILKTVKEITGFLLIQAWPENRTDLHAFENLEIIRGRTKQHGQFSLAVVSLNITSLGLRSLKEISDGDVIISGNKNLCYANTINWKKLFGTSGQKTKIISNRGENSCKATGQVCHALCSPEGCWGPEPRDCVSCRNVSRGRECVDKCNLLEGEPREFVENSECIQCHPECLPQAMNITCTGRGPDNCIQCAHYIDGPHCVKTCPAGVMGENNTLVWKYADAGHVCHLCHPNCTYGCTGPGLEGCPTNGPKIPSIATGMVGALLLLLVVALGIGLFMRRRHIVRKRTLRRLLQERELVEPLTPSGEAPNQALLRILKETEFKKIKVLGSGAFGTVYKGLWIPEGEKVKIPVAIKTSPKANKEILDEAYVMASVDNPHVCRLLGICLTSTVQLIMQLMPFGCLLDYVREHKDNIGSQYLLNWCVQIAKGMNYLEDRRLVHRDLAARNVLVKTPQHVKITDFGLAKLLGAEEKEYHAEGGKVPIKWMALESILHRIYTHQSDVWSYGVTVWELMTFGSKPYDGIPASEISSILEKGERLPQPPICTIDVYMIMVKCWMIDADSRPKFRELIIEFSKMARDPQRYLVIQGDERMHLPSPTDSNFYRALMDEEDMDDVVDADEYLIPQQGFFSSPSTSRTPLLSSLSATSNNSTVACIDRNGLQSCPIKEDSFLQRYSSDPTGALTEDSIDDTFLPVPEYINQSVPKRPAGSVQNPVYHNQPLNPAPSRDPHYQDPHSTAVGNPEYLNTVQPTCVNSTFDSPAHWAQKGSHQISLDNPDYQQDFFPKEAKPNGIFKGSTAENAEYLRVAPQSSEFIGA

`C=CC(=O)Nc1cc(Nc2ncc(NC(=O)C(C)(C)C)c(-c3cn(C)c4ccccc34)n2)c(OC)cc1OC` [Example 42, N-(2,4-dimethoxy-5-((4-(1-methyl-1H-indol-3-yl)-5-pivalamidopyrimidin-2-yl)amino)phenyl)acrylamide]: the IC50 in test [1], in test [2], in test [3] and in test [4] was greater than 1000 nM throughout.
Regarding `C=CC(=O)Nc1cc(Nc2ncc(Cl)c(-c3cnn4ccccc34)n2)c(OC)cc1OCCN(C)C` [Example 51, N-(5-((5-chloro-4-(pyrazolo[1,5-a]pyridin-3-yl)pyrimidin-2-yl)amino)-2-(2-(dimethylamino)ethoxy)-4-methoxyphenyl)acrylamide], the IC50 – broadly, the midpoint of a concentration-inhibition curve – in test [1] was 100 to 500 nM; in test [2] it was less than 100 nM; in test [3], 100 to 500 nM; in test [4] it was less than 100 nM.
Turning to `C=CC(=O)Nc1cc(Nc2ncc(Cl)c(-c3cnn4ccccc34)n2)c(OC)cc1N1CCC(N(C)C)C1` (stereo not shown) [Example 55, N-(5-((5-chloro-4-(pyrazolo[1,5-a]pyridin-3-yl)pyrimidin-2-yl)amino)-2-(3-(dimethylamino)pyrrolidin-1-yl)-4-methoxyphenyl)acrylamide], the IC50 in test [1] is greater than 1000 nM; in test [2] it was 100 to 500 nM; in test [3] it was greater than 1000 nM; in test [4] it was less than 100 nM.
`C=CC(=O)Nc1cc(Nc2ncc(C(=O)OC(C)C)c(-c3nn(C)c4ccccc34)n2)c(OC)cc1N(C)CCN(C)C` [Example 59, isopropyl 2-((5-acrylamido-4-((2-(dimethylamino)ethyl)(methyl)amino)-2-methoxyphenyl)amino)-4-(1-methyl-1H-indazol-3-yl)pyrimidine-5-carboxylate]: the 50% inhibitory concentration (IC50) in test [1], in test [2], in test [3] and in test [4] was less than 100 nM each time.
On to `C=CC(=O)Nc1cc(Nc2ncc(NC(=O)CC)c(-c3nn(C)c4ccccc34)n2)c(OC)cc1N(C)CCN(C)C` [Example 60, N-(2-((2-(dimethylamino)ethyl)(methyl)amino)-4-methoxy-5-((4-(1-methyl-1H-indazol-3-yl)-5-propionamidopyrimidin-2-yl)amino)phenyl)acrylamide], for which the IC50 is greater than 1000 nM in test [1], less than 100 nM in test [2], less than 100 nM in test [3] and less than 100 nM in test [4].
On to `C=CC(=O)Nc1cc(Nc2ncc(C(=O)OC(C)C)c(-n3ccc4ccccc43)n2)c(OC)cc1N(C)C[C@H]1CCCN1C` [Example 61, isopropyl (R)-2-((5-acrylamido-2-methoxy-4-(methyl((1-methylpyrrolidin-2-yl)methyl)amino)phenyl)amino)-4-(1H-indol-1-yl)pyrimidine-5-carboxylate], for which the 50% inhibitory concentration (IC50) in test [1] was 100 to 500 nM; in test [2] it was less than 100 nM; in test [3], less than 100 nM; in test [4], less than 100 nM.
As to `C=CC(=O)Nc1cc(Nc2ncc(C(=O)OC(C)C)c(-c3coc4ccccc34)n2)c(OC)cc1N(C)C[C@H]1CCCN1C` [Example 62, isopropyl (R)-2-((5-acrylamido-2-methoxy-4-(methyl((1-methylpyrrolidin-2-yl)methyl)amino)phenyl)amino)-4-(benzofuran-3-yl)pyrimidine-5-carboxylate], the 50% inhibitory concentration (IC50) is 100 to 500 nM in test [1], less than 100 nM in test [2], less than 100 nM in test [3] and less than 100 nM in test [4].
With `C=CC(=O)Nc1cc(Nc2ncc(C(=O)OC)c(-n3ccc4ccccc43)n2)c(OC)cc1N(C)C[C@H]1CCCN1C` [Example 63, methyl (R)-2-((5-acrylamido-2-methoxy-4-(methyl((1-methylpyrrolidin-2-yl)methyl)amino)phenyl)amino)-4-(1H-indol-1-yl)pyrimidine-5-carboxylate], the 50% inhibitory concentration (IC50) in test [1] is 500 to 1000 nM; in test [2], less than 100 nM; in test [3], less than 100 nM; in test [4], less than 100 nM.
Take `C=CC(=O)Nc1cc(Nc2ncc(C(=O)OC(C)C)c(-c3c[nH]c4ccccc34)n2)c(OC)cc1N(C)C[C@H]1CCCN1C` [Example 64, isopropyl (R)-2-((5-acrylamido-2-methoxy-4-(methyl((1-methylpyrrolidin-2-yl)methyl)amino)phenyl)amino)-4-(1H-indol-3-yl)pyrimidine-5-carboxylate]: the IC50 in test [1], in test [2], in test [3] and in test [4] was less than 100 nM in each case.
`C=CC(=O)Nc1cc(Nc2ncc(C(=O)OCC)c(-c3cn(C)c4ccccc34)n2)c(OC)cc1N(C)C[C@H]1CCCN1C` [Example 65, ethyl (R)-2-((5-acrylamido-2-methoxy-4-(methyl((1-methylpyrrolidin-2-yl)methyl)amino)phenyl)amino)-4-(1-methyl-1H-indol-3-yl)pyrimidine-5-carboxylate]: the IC50 in test [1], in test [2], in test [3] and in test [4] was less than 100 nM each time.
Regarding `C=CC(=O)Nc1cc(Nc2ncc(C(=O)OC)c(-c3cn(C)c4ccccc34)n2)c(OC)cc1C#CCN(C)C` [Example 68, methyl 2-((5-acrylamido-4-(3-(dimethylamino)prop-1-yn-1-yl)-2-methoxyphenyl)amino)-4-(1-methyl-1H-indol-3-yl)pyrimidine-5-carboxylate], the IC50 in test [1] is 500 to 1000 nM; in test [2], less than 100 nM; in test [3], 100 to 500 nM; in test [4], less than 100 nM.
For `C=CC(=O)Nc1cc(Nc2ncc(C(=O)OC)c(-c3cn(C)c4ccccc34)n2)c(OC)cc1CCCN(C)C` [Example 69, methyl 2-((5-acrylamido-4-(3-(dimethylamino)propyl)-2-methoxyphenyl)amino)-4-(1-methyl-1H-indol-3-yl)pyrimidine-5-carboxylate], the half-maximal inhibitory concentration (IC50) in test [1] was 500 to 1000 nM; in test [2] it was less than 100 nM; in test [3], 100 to 500 nM; in test [4] it was less than 100 nM.
In the case of `C=CC(=O)Nc1cc(Nc2ncc(C(=O)OC)c(-c3cn(N(C)C)c4ccccc34)n2)c(OC)cc1N(C)CCN(C)C` [Example 76, methyl 2-((5-acrylamido-4-((2-(dimethylamino)ethyl)(methyl)amino)-2-methoxyphenyl)amino)-4-(1-(dimethylamino)-1H-indol-3-yl)pyrimidine-5-carboxylate], the concentration for half-maximal inhibition (IC50) in test [1], in test [2], in test [3] and in test [4] was less than 100 nM each time.
Regarding `C=CC(=O)Nc1cc(Nc2ncc(C(=O)OC(C)C)c(-c3cn(C(C)=O)c4ccccc34)n2)c(OC)cc1N(C)CCN(C)C` [Example 78, isopropyl 4-(1-acetyl-1H-indol-3-yl)-2-((5-acrylamido-4-((2-(dimethylamino)ethyl)(methyl)amino)-2-methoxyphenyl)amino)pyrimidine-5-carboxylate], the IC50 in test [1], in test [2], in test [3] and in test [4] was less than 100 nM in each case.
Take `C=CC(=O)Nc1cc(Nc2ncc(C(=O)OC(C)C)c(-c3cn(C4CC4)c4ccccc34)n2)c(OC)cc1N(C)CCN(C)C` [Example 79, isopropyl 2-((5-acrylamido-4-((2-(dimethylamino)ethyl)(methyl)amino)-2-methoxyphenyl)amino)-4-(1-cyclopropyl-1H-indol-3-yl)pyrimidine-5-carboxylate]: the concentration for half-maximal inhibition (IC50) in test [1] was 100 to 500 nM; in test [2], less than 100 nM; in test [3], less than 100 nM; in test [4] it was less than 100 nM.
As to `C=CC(=O)Nc1cc(Nc2nccc(-c3cn(C)c4cccc(C(=O)OC)c34)n2)c(OC)cc1N(C)CCN(C)C` [Example 80, methyl 3-(2-((5-acrylamido-4-((2-(dimethylamino)ethyl)(methyl)amino)-2-methoxyphenyl)amino)pyrimidin-4-yl)-1-methyl-1H-indole-4-carboxylate], the 50% inhibitory concentration (IC50) in test [1], in test [2] and in test [3] was greater than 1000 nM in each case. Moreover, the “EGFR exon 19 deletion and T790M mutation IC50” value in test [4] is “D (Group D compounds have an IC50 value for the indicated mutant greater than about 1 μM)”.
Turning to `C=CC(=O)Nc1cc(Nc2nccc(-c3cn(C)c4ccc(C(=O)OC)cc34)n2)c(OC)cc1N(C)CCN(C)C` [Example 81, methyl 3-(2-((5-acrylamido-4-((2-(dimethylamino)ethyl)(methyl)amino)-2-methoxyphenyl)amino)pyrimidin-4-yl)-1-methyl-1H-indole-5-carboxylate], the IC50 in test [1] is 500 to 1000 nM; in test [2], less than 100 nM; in test [3], 100 to 500 nM; in test [4], less than 100 nM.
Regarding `C=CC(=O)Nc1cc(Nc2nccc(-c3cn(C)c4cc(C(=O)OC)ccc34)n2)c(OC)cc1N(C)CCN(C)C` [Example 82, methyl 3-(2-((5-acrylamido-4-((2-(dimethylamino)ethyl)(methyl)amino)-2-methoxyphenyl)amino)pyrimidin-4-yl)-1-methyl-1H-indole-6-carboxylate], the IC50 in test [1] is 100 to 500 nM; in test [2], less than 100 nM; in test [3], 100 to 500 nM; in test [4] it was less than 100 nM.
Turning to `C=CC(=O)Nc1cc(Nc2ncc(C(=O)OC(C)C)c(-c3cnc4ccccn34)n2)c(OC)cc1N(C)CCN(C)C` [Example 94, isopropyl 2-((5-acrylamido-4-((2-(dimethylamino)ethyl)(methyl)amino)-2-methoxyphenyl)amino)-4-(imidazo[1,2-a]pyridin-3-yl)pyrimidine-5-carboxylate], the concentration for half-maximal inhibition (IC50) in test [1], in test [2], in test [3] and in test [4] was less than 100 nM each time.
